Laboratory results reported in ChEMBL document CHEMBL1137794, “Didemnins and tunichlorin: novel natural products from the marine tunicate Trididemnum solidum” (J Nat Prod, 1988).
Values after ≈ are worked out from the molar mass of the structure shown. Active and inactive are the calls of the source. No cut-off for these calls is given here. *1 amine or outer side, *2 acyl side, *3 side chain or, on linkers, in order; H or OH if unused. Where a SMILES comes first, the peptide text is derived from it. Bridges are numbered along the chain shown (N, C = ends). [ ]: non-standard residue; d: D form. X1 = CC[C@H](C)[C@@H](N[*:1])[C@@H](O)CC(=O)O[C@H](C(=O)[C@H](C)C(=O)[*:2])C(C)C; NMeY = CN[C@@H](Cc1ccc(O)cc1)C(=O)O; dNMeL = CN[C@H](CC(C)C)C(=O)O; Lac = C[C@H](O)C(=O)O

Legend:
Mus musculus [1] = assay: Toxicity in mouse P388 cells xenografted mouse at 0.06 mg/kg, ip administered on day 1 to day 9; assay type: organism-based; set-up: dose 0.06 mg/kg, route intraperitoneal; details: in vivo
Mus musculus [2] = assay: Toxicity in mouse B16 cells xenografted mouse assessed as change in body weight at 0.25 mg/kg, ip administered on day 1, 5 and day 9; assay type: organism-based; set-up: dose 0.25 mg/kg, route intraperitoneal; details: in vivo
Mus musculus [3] = assay: Toxicity in mouse P388 cells xenografted mouse at 0.5 mg/kg, ip administered on day 1 to day 9; assay type: organism-based; set-up: dose 0.5 mg/kg, route intraperitoneal; details: in vivo
[4] = test system: Venezuelan equine encephalitis virus; assay: Antiviral activity against Venezuelan equine encephalomyelitis virus infected in african green monkey Vero cells assessed as plaque reduction at 0.05 ug/mL; assay type: functional, organism-based
Mus musculus [5] = assay: Toxicity in mouse B16 cells xenografted mouse assessed as change in body weight at 0.06 mg/kg, ip administered on day 1 to day 9; assay type: organism-based; set-up: dose 0.06 mg/kg, route intraperitoneal; details: in vivo
Rattus norvegicus = species: Rattus norvegicus; assay: Toxicity in rat; assay type: organism-based; details: in vivo
Mus musculus [6] = assay: Toxicity in mouse B16 cells xenografted mouse assessed as change in body weight at 0.5 mg/kg, ip administered on day 1, 5 and day 9; assay type: organism-based; set-up: dose 0.5 mg/kg, route intraperitoneal; details: in vivo
Mus musculus [7] = assay: Toxicity in mouse B16 cells xenografted mouse assessed as change in body weight at 1 mg/kg, ip administered on day 1, 5 and day 9; assay type: organism-based; set-up: dose 1 mg/kg, route intraperitoneal; details: in vivo
Mus musculus [8] = species: Mus musculus; assay: Toxicity in mouse; assay type: organism-based; details: in vivo
[9] = test system: Sandfly fever Sicilian virus; assay: Antiviral activity against Sandfly fever virus assessed as plaque reduction at 0.05 ug/mL; assay type: functional, organism-based
Mus musculus [10] = assay: Toxicity in mouse B16 cells xenografted mouse at 0.5 mg/kg, ip administered on day 1 to day 9; assay type: organism-based; set-up: dose 0.5 mg/kg, route intraperitoneal; details: in vivo
Mus musculus [11] = assay: Toxicity in mouse P388 cells xenografted mouse assessed as change in body weight at 0.5 mg/kg, ip administered on day 1 to day 9; assay type: organism-based; set-up: dose 0.5 mg/kg, route intraperitoneal; details: in vivo
Mus musculus [12] = assay: Toxicity in mouse P388 cells xenografted mouse assessed as change in body weight at 0.03 mg/kg, ip administered on day 1, 5 and day 9; assay type: organism-based; set-up: dose 0.03 mg/kg, route intraperitoneal
Mus musculus [13] = assay: Toxicity in mouse B16 cells xenografted mouse assessed as change in body weight at 0.25 mg/kg, ip administered on day 1 to day 9; assay type: organism-based; set-up: dose 0.25 mg/kg, route intraperitoneal; details: in vivo
Mus musculus [14] = species: Mus musculus; assay: Immunosuppressive activity in spleen cells transformed mouse assessed as inhibition of splenomegaly by graft-versus-host reaction assay; assay type: functional, organism-based
Canis familiaris = species: Canis familiaris; assay: Toxicity in dog; assay type: organism-based, Canis lupus familiaris; details: in vivo
Mus musculus [15] = assay: Toxicity in mouse B16 cells xenografted mouse assessed as change in body weight at 0.03 mg/kg, ip administered on day 1 to day 9; assay type: organism-based; set-up: dose 0.03 mg/kg, route intraperitoneal; details: in vivo
Mus musculus [16] = assay: Toxicity in mouse P388 cells xenografted mouse assessed as change in body weight at 0.25 mg/kg, ip administered on day 1 to day 9; assay type: organism-based; set-up: dose 0.25 mg/kg, route intraperitoneal; details: in vivo
Mus musculus [17] = assay: Toxicity in mouse P388 cells xenografted mouse assessed as change in body weight at 0.25 mg/kg, ip administered on day 1, 5 and day 9; assay type: organism-based; set-up: dose 0.25 mg/kg, route intraperitoneal; details: in vivo
Mus musculus [18] = assay: Toxicity in mouse P388 cells xenografted mouse assessed as change in body weight at 1 mg/kg, ip administered on day 1 to day 9; assay type: organism-based; set-up: dose 1 mg/kg, route intraperitoneal; details: in vivo
Mus musculus [19] = assay: Toxicity in mouse B16 cells xenografted mouse assessed as change in body weight at 0.06 mg/kg, ip administered on day 1, 5 and day 9; assay type: organism-based; set-up: dose 0.06 mg/kg, route intraperitoneal; details: in vivo
Rift Valley fever virus [20] = assay: Antiviral activity against Rift Valley fever virus infected in african green monkey Vero cells assessed as plaque reduction at 0.05 ug/mL; assay type: functional, organism-based
Yellow fever virus [21] = assay: Antiviral activity against Yellow fever virus infected in rhesus monkey MK2 cells assessed as plaque reduction at 0.05 ug/mL; assay type: functional, organism-based
Mus musculus [22] = assay: Toxicity in mouse B16 cells xenografted mouse assessed as change in body weight at 0.5 mg/kg, ip administered on day 1 to day 9; assay type: organism-based; set-up: dose 0.5 mg/kg, route intraperitoneal; details: in vivo
Mus musculus [23] = assay: Toxicity in mouse P388 cells xenografted mouse assessed as change in body weight at 1 mg/kg, ip administered on day 1, 5 and day 9; assay type: organism-based; set-up: dose 1 mg/kg, route intraperitoneal; details: in vivo
Mus musculus [24] = assay: Toxicity in mouse P388 cells xenografted mouse assessed as change in body weight at 0.5 mg/kg, ip administered on day 1, 5 and day 9; assay type: organism-based; set-up: dose 0.5 mg/kg, route intraperitoneal; details: in vivo
Mus musculus [25] = assay: Toxicity in mouse P388 cells xenografted mouse assessed as change in body weight at 0.06 mg/kg, ip administered on day 1, 5 and day 9; assay type: organism-based; set-up: dose 0.06 mg/kg, route intraperitoneal; details: in vivo
Mus musculus [26] = assay: Toxicity in mouse P388 cells xenografted mouse assessed as change in body weight at 0.06 mg/kg, ip administered on day 1 to day 9; assay type: organism-based; set-up: dose 0.06 mg/kg, route intraperitoneal; details: in vivo
Rift Valley fever virus [27] = assay: Antiviral activity against Rift Valley fever virus infected in african green monkey Vero cells assessed as plaque reduction at 250 ug/mL; assay type: functional, organism-based
Yellow fever virus [28] = assay: Antiviral activity against Yellow fever virus infected in rhesus monkey MK2 cells assessed as plaque reduction at 250 ug/mL; assay type: functional, organism-based
[29] = test system: Sandfly fever Sicilian virus; assay: Antiviral activity against Sandfly fever virus assessed as plaque reduction at 250 ug/mL; assay type: functional, organism-based
[30] = test system: Venezuelan equine encephalitis virus; assay: Antiviral activity against Venezuelan equine encephalomyelitis virus infected in african green monkey Vero cells assessed as plaque reduction at 250 ug/mL; assay type: functional, organism-based
T-cell [31] = assay: Immunosuppressive activity in rat T cell assessed as inhibition of mitogenesis
Lymphocyte [32] = assay: Immunosuppressive activity in human lymphocytes by mixed lymphocyte reaction assay; assay type: functional, cell-based
T-cell [33] = assay: Immunosuppressive activity in human T cell assessed as inhibition of mitogenesis; assay type: functional, cell-based
Lymphocyte [34] = assay: Immunosuppressive activity in baboon lymphocytes by mixed lymphocyte reaction assay; details: Papio hamadryas
B cell = assay: Immunosuppressive activity in human B cell assessed as inhibition of mitogenesis
Lymphocyte [35] = assay: Immunosuppressive activity in human lymphocytes assessed as inhibition of protein synthesis
T-cell [36] = assay: Immunosuppressive activity in baboon T cell assessed as inhibition of mitogenesis; details: Papio hamadryas
P388 = assay: Antitumor activity against mouse P388 cells xenografted mouse assessed as extend the life time at 0.03 to 1 mg/kg, ip; assay type: functional; details: dose mg/kg 0.03-1; route intraperitoneal
L1210 = assay: Cytotoxicity against mouse L1210 cells; assay type: functional; details: read-out: ID50 (the source's name)

## CC[C@H](C)[C@H]1NC(=O)[C@@H](NC(=O)[C@@H](CC(C)C)N(C)C(=O)[C@@H]2CCCN2C(=O)C(C)O)[C@@H](C)OC(=O)[C@H](Cc2ccc(OC)cc2)N(C)C(=O)[C@@H]2CCCN2C(=O)[C@H](CC(C)C)NC(=O)[C@@H](C)C(=O)[C@H](C(C)C)OC(=O)C[C@@H]1O (some centres not stated) [DIDEMNIN B]
Mus musculus [1]
  Activity: Toxic
Mus musculus [2]
  Activity: 0.3 g
Mus musculus [3]
  Activity: Toxic
[4]
  Activity: Active
Mus musculus [5]
  Activity: -0.4 g
Rattus norvegicus
  Activity: Toxic
Mus musculus [6]
  Activity: -1.3 g
Mus musculus [7]
  Activity: -3.2 g
Mus musculus [8]
  Activity: Toxic
[9]
  Activity: Active
Mus musculus [10]
  Activity: Toxic
Mus musculus [11]
  Activity: -3.4 g
Mus musculus [12]
  body weight change: 1600 mg
Mus musculus [13]
  Activity: -3.3 g
Mus musculus [14]
  inhibition: Dose-dependent effect
Canis familiaris
  Activity: Toxic
Mus musculus [15]
  Activity: 0.8 g
Mus musculus [16]
  Activity: -2.2 g
Mus musculus [17]
  Activity: -0.5 g
Mus musculus [18]
  Activity: Toxic
Mus musculus [19]
  Activity: 1.2 g
Rift Valley fever virus [20]
  Activity: Active
Yellow fever virus [21]
  Activity: Active
Mus musculus [22]
  Activity: -4.5 g
Mus musculus [23]
  Activity: -3.8 g
Mus musculus [24]
  Activity: -1.7 g
Mus musculus [25]
  Activity: 1.2 g
Mus musculus [26]
  Activity: 0.1 g

## NC(=O)c1ncn([C@@H]2O[C@H](CO)[C@@H](O)[C@H]2O)n1
Rift Valley fever virus [27]
  Activity: Active
Yellow fever virus [28]
  Activity: Active
[29]
  Activity: Active
[30]
  Activity: Active

## Cn1cnc([N+](=O)[O-])c1Sc1ncnc2[nH]cnc12 [AZATHIOPRINE]
T-cell [31]
  IC50: 2 mg/L (≈ 7.21 µM)
Lymphocyte [32]
  IC50: 3 mg/L (≈ 10.8 µM)
T-cell [33]
  IC50: 9 mg/L (≈ 32.5 µM)
Lymphocyte [34]
  IC50: 2.9 mg/L (≈ 10.5 µM)
B cell
  IC50: 1 mg/L (≈ 3.61 µM)
Lymphocyte [35]
  IC50: 85 mg/L (≈ 307 µM)
T-cell [36]
  IC50: 0.4 mg/L (≈ 1.44 µM)

## CC[C@H](C)[C@H]1NC(=O)[C@@H](NC(=O)[C@@H](CC(C)C)NC)[C@@H](C)OC(=O)[C@H](Cc2ccc(OC)cc2)N(C)C(=O)[C@@H]2CCCN2C(=O)[C@H](CC(C)C)NC(=O)[C@@H](C)C(=O)[C@H](C(C)C)OC(=O)C[C@@H]1O [DIDEMNIN A] (H-[dNMeL]T[X1]LP[NMeY](Me); ester 2-C)
P388
  Activity: 100%
L1210
  IC50: 0.002 mg/L (≈ 0.00212 µM)

## CC[C@H](C)[C@H]1NC(=O)[C@@H](NC(=O)[C@@H](CC(C)C)N(C)C(=O)[C@H](C)O)[C@@H](C)OC(=O)[C@H](Cc2ccc(OC)cc2)N(C)C(=O)[C@@H]2CCCN2C(=O)[C@H](CC(C)C)NC(=O)[C@@H](C)C(=O)[C@H](C(C)C)OC(=O)C[C@@H]1O [DIDEMNIN C] (H-[Lac][dNMeL]T[X1]LP[NMeY](Me); ester 3-C)
L1210
  IC50: 0.002 mg/L (≈ 0.00197 µM)
